# Structures can show the parent of a compound that is named as a salt. Where two headings read alike, the source gives them in different places.
# Columns and labels:
# [1] = system: LPS-induced microglia activation; assay: Image-based assay of LPS-induced microglia activation (HTS and dose response); assay type: cell-based, rat; conditions: for inhibition at 10 µM: Rattus norvegicus, Microglia, read-out: LPS % inhibition
# primary rat microglia [2] = assay: Cell toxicity (dead cells, size <150 μm2) in coated fibrin (cFib) assay; conditions: for IC50: read-out: Cell Toxicity IC50 (uM) [cFib assay];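 on Fibrin % cell toxicity: share of dead cells sized under 150 µm2 at 10 µM in fibrin-stimulated microglia HTS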
# [3] = system: fibrin-induced microglia activation; assay: Image-based assay of fibrin-induced microglia activation (HTS and dose response); assay type: cell-based, rat; conditions: for inhibition at 10 µM: Rattus norvegicus, Microglia, read-out: Fibrin % inhibition
# [4] = system: fibrin- and LPS-induced microglia activation; assay: cells; assay type: cell-based, rat
# primary rat microglia [5] = assay: Cell toxicity (dead cells, size <150 μm2) in LPS assay; conditions: for IC50: read-out: Cell Toxicity IC50 (uM) [LPS assay]
# [6] = 48 h, primary microglia HTS, LPS stimulation, increased cell size (>800 μm^2) as marker of activation
# [7] = primary microglia HTS, fibrin stimulation, decreased size (<150 μm^2) as marker of toxicity
# [8] = primary microglia HTS, fibrin stimulation, increased cell size (>800 μm^2) as marker of activation
# [9] = quadrant by fibrin and LPS inhibition in HTS of 1907 compounds
# [10] = primary microglia HTS, LPS stimulation, decreased size (<150 μm^2) as marker of toxicity
# [11] = 48 h, primary microglia HTS, LPS stimulation, activation = cell size >800 μm2
# [12] = primary microglia HTS, fibrin stimulation, toxicity = cell size <150 μm2
# [13] = primary microglia HTS, fibrin stimulation, activation = cell size >800 μm2
# [14] = primary microglia HTS, LPS stimulation, toxicity = cell size <150 μm2
# [15] = primary HTS, 10 μM, LPS-stimulated primary microglia
# [16] = primary HTS, 10 μM, fibrin assay, dead cells size <150 μm2
# [17] = primary HTS, 10 μM, fibrin-stimulated primary microglia
# [18] = primary HTS, 10 μM, LPS assay, dead cells size <150 μm2
smiles,measurement,setting,value
CCCCN1C[C@H](O)[C@@H](O)[C@H](O)[C@H]1CO [Miglustat],inhibition at 10 µM,[1]; [6],0%
same,Fibrin % cell toxicity,primary rat microglia [2]; [7],1%
same,inhibition at 10 µM,[3]; [8],-6%
same,Quadrant (FIG. 5b),[4]; [9],Q4
same,LPS % cell toxicity,primary rat microglia [5]; [10],0%
COc1c(N2CCNC(C)C2)c(F)cc2c(=O)c(C(=O)O)cn(C3CC3)c12 (stereo not shown) [Gatifloxacin],inhibition at 10 µM,[1]; [11],19%
same,Fibrin % cell toxicity,primary rat microglia [2]; [12],1%
same,inhibition at 10 µM,[3]; [13],-19%
same,Quadrant (FIG. 5b),[4]; [9],Q4
same,LPS % cell toxicity,primary rat microglia [5]; [14],0%
CCOC(=O)[C@H](CCc1ccccc1)N[C@@H](C)C(=O)N1Cc2cc(OC)c(OC)cc2C[C@H]1C(=O)O [Moexipril],inhibition at 10 µM,[1]; [6],9%
same,Fibrin % cell toxicity,primary rat microglia [2]; [7],1%
same,inhibition at 10 µM,[3]; [8],-29%
same,Quadrant (FIG. 5b),[4]; [9],Q4
same,LPS % cell toxicity,primary rat microglia [5]; [10],1%
CC(C)OC(=O)CCC/C=C\C[C@@H]1[C@@H](CC[C@@H](O)CCc2ccccc2)[C@H](O)C[C@@H]1O [Latanoprost],inhibition at 10 µM,[1]; [11],4%
same,Fibrin % cell toxicity,primary rat microglia [2]; [12],1%
same,inhibition at 10 µM,[3]; [13],10%
same,Quadrant (FIG. 5b),[4]; [9],Q4
same,LPS % cell toxicity,primary rat microglia [5]; [14],0%
CCOC(=O)Nc1nc2ccccc2[nH]1 [Lobendazole],inhibition at 10 µM,[1]; [11],20%
same,Fibrin % cell toxicity,primary rat microglia [2]; [12],0%
same,inhibition at 10 µM,[3]; [13],-4%
same,Quadrant (FIG. 5b),[4]; [9],Q4
same,LPS % cell toxicity,primary rat microglia [5]; [14],0%
CCN(CC)CCOC(=O)C(Cc1cccc2ccccc12)CC1CCCO1 (stereo not shown) [Nafronyl Oxalate],inhibition at 10 µM,[1]; [6],15%
same,Fibrin % cell toxicity,primary rat microglia [2]; [7],1%
same,inhibition at 10 µM,[3]; [8],15%
same,Quadrant (FIG. 5b),[4]; [9],Q4
same,LPS % cell toxicity,primary rat microglia [5]; [10],0%
Cc1cc2c(cc1S(N)(=O)=O)S(=O)(=O)CCC2 [Meticrane],inhibition at 10 µM,[1]; [6],9%
same,Fibrin % cell toxicity,primary rat microglia [2]; [7],0%
same,inhibition at 10 µM,[3]; [8],-33%
same,Quadrant (FIG. 5b),[4]; [9],Q4
same,LPS % cell toxicity,primary rat microglia [5]; [10],0%
CC[C@@H](C(N)=O)N1CCCC1=O [Levetiracetam],inhibition at 10 µM,[1]; [11],7%
same,Fibrin % cell toxicity,primary rat microglia [2]; [12],1%
same,inhibition at 10 µM,[3]; [13],-24%
same,Quadrant (FIG. 5b),[4]; [9],Q4
same,LPS % cell toxicity,primary rat microglia [5]; [14],0%
CC1(C)S[C@@H]2[C@H](NC(=O)Cc3ccccc3)C(=O)N2[C@H]1C(=O)O [Benzylpenicillin],inhibition at 10 µM,[1]; [15],42%
same,Fibrin % cell toxicity,primary rat microglia [2]; [16],1%
same,inhibition at 10 µM,[3]; [17],29%
same,Quadrant (FIG. 5b),"[4]; primary HTS, 10 μM",Q4
same,LPS % cell toxicity,primary rat microglia [5]; [18],0%
CCOC(=O)CC(=O)N1CCSC1COc1ccccc1OC (stereo not shown) [Moguisteine],inhibition at 10 µM,[1]; [6],15%
same,Fibrin % cell toxicity,primary rat microglia [2]; [7],1%
same,inhibition at 10 µM,[3]; [8],-2%
same,Quadrant (FIG. 5b),[4]; [9],Q4
same,LPS % cell toxicity,primary rat microglia [5]; [10],0%
C[C@]12CCC(=O)C=C1C=C[C@@H]1[C@@H]2CC[C@@]2(C)[C@H]1CC[C@@]21CCC(=O)O1 [Canrenone],inhibition at 10 µM,[1]; [15],19%
same,Fibrin % cell toxicity,primary rat microglia [2]; [16],1%
same,inhibition at 10 µM,[3]; [17],-10%
same,Quadrant (FIG. 5b),"[4]; primary HTS, 10 μM",Q4
same,LPS % cell toxicity,primary rat microglia [5]; [18],0%
"COC(=O)[C@@H]1CC2=CC(=O)CC[C@]2(C)[C@@]23O[C@@H]2C[C@@]2(C)[C@@H](CC[C@@]24CCC(=O)O4)[C@H]13 [Eplerenore, reference compound]",IC50,"[1]; LPS-induced microglia activation, dose response, read-out: LPS IC50 (uM) (Suppl. Table 7)",> 20 µM
same,IC50,"[1]; Table 1, dose response 0.001-20 μM, triplicates, primary rat microglia, 48 h, read-out: LPS IC50",> 20 µM
same,IC50,"[1]; Table 3, read-out: LPS IC50 (uM) (Suppl. Table 7)",> 20 µM
same,IC50,"[1]; dose response, LPS-induced microglia activation, read-out: LPS IC50",> 20 µM
same,LPS % inhibition,"[1]; primary microglia HTS, LPS stimulation, increased cell size (>800 μm^2) as marker of activation",69%
same,Fibrin % cell toxicity,primary rat microglia [2]; [7],2%
same,IC50,primary rat microglia [2]; Table 3,> 20 µM
same,IC50,primary rat microglia [2]; cFib assay,> 20 µM
same,Fibrin Selectivity,[3],8
same,Fibrin Selectivity (LOG10),[3],0.88
same,IC50,"[3]; Table 1, dose response 0.001-20 μM, triplicates, primary rat microglia, 48 h, read-out: Fibrin IC50",3 µM
same,IC50,"[3]; Table 3, read-out: Fibrin IC50 (uM) (Suppl. Table 7)",3 µM
same,IC50,"[3]; dose response, fibrin-induced microglia activation, read-out: Fibrin IC50",3 µM
same,IC50,"[3]; fibrin-induced microglia activation, dose response, read-out: Fibrin IC50 (uM) (Suppl. Table 7)",3 µM
same,Fibrin % inhibition,[3]; [8],63%
same,Hit,[4]; HTS hit classification,HIT (Hits were defined as molecules that exhibited greater than 50% inhibition of either fibrin or LPS activation)
same,Quadrant (FIG. 5b),"[4]; HTS of 1907 compounds, quadrant by fibrin and LPS inhibition",Q2
same,Quadrant (FIG. 5b),"[4]; Table 1, screen at 10 μM",Q2
same,Cherry-picked Hit (Suppl. Table 7),[4]; Table 3,HIT (Hits were defined as molecules that exhibited greater than 50% inhibition of either fibrin or LPS activation)
same,Quadrant (FIG. 5b),"[4]; Table 3, screen at 10 μM",Q2
same,Cherry-picked Hit (Suppl. Table 7),[4]; hit classification in microglia HTS,HIT (Hits were defined as molecules that exhibited greater than 50% inhibition of either fibrin or LPS activation)
same,Quadrant (FIG. 5b),[4]; [9],Q2
same,LPS % cell toxicity,primary rat microglia [5]; [10],2%
same,IC50,primary rat microglia [5]; LPS assay,> 20 µM
same,IC50,primary rat microglia [5]; Table 3,> 20 µM
O=C(O)CCc1nc(-c2ccccc2)c(-c2ccccc2)o1 [Oxaprozin],inhibition at 10 µM,[1]; [6],15%
same,Fibrin % cell toxicity,primary rat microglia [2]; [7],1%
same,inhibition at 10 µM,[3]; [8],0%
same,Quadrant (FIG. 5b),[4]; [9],Q4
same,LPS % cell toxicity,primary rat microglia [5]; [10],1%

# Reference: US20210330611A1, “THERAPY FOR NEUROLOGICAL DISEASES/DISORDERS” (priority 2020, published 2021)
